This is an account of results in patent US20130029991A1, “New Phenylsulfamoyl Benzamide Derivatives as Bradykinin Antagonists” (priority 2006, published 2013).

Test [1] addresses T1, human recombinant bradykinin B1 receptor (Homo sapiens, UniProt P46663).
T1 construct: host or cells: CHO cells
T1 sequence (P46663 1-353): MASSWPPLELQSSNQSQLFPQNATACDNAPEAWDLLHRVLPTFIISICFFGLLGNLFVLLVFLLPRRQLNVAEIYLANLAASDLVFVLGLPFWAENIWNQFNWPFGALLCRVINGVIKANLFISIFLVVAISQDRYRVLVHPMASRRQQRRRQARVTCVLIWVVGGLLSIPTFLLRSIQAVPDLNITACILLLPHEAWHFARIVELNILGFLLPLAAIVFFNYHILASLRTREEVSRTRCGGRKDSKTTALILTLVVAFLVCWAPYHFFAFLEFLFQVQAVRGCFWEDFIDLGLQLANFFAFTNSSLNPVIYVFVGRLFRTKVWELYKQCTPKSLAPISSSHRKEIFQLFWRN
As to the kind of experiment: Human recombinant bradykinin B1 receptor binding. The conditions noted are these: CHO cell membranes, [3H]-[Des-Arg10] Kallidin radioligand; read-out: B1 binding. The method, then: 1. Human Recombinant Bradykinin B1 Receptor Binding
Binding assays were carried out on human recombinant bradykinin) receptors (expressed in CHO cells) according to the Euroscreen Technical Data Sheet (Cat.No.:ES-091). 20 μg protein/tube was incubated with [3,4-prolyl-3,4-^3H(N)]-[Des-Arg^10] Kallidin as radioligand. Non specific binding was determined in the presence of 10 μM Lys-des-Arg^9-Bradykinin. The final incubation volume was 250 μl. Samples were incubated for 15 min. at 25° C. then were rapidly vacuum filtered through GF/B filters presoaked for at least 1 h in 0.5% PEI. Radioactivity was determined by liquid scintillation spectroscopy.

The target in test [2] is T2, recombinant human B1 receptors (Homo sapiens, UniProt P46663).
T2 construct: host or cells: CHO (CHO-B1)
T2 sequence (P46663 1-353): T1 sequence (P46663 1-353)
In words: Functional assay: antagonist potency by cytosolic calcium measurement (fluo-4, plate reader fluorimeter) in CHO-B1 cells. The conditions noted are these: CHO-B1 cells, inhibition of LysDABK (EC80)-evoked [Ca2+]i elevation; read-out: B1 func. The class given is cell-based. The procedure:
Assessment of Antagonist Potency at B1 and B2 Receptors In Vitro by Measurement of Cytosolic Calcium Ion Concentration with a Plate Reader Fluorimeter in Cells Expressing Recombinant Human B1 or B2 Receptors
Chinese hamster ovary (CHO) cells stably expressing recombinant human B1 (CHO-B1, Euroscreen) or B2 (CHO-B2, Perkin-Elmer) receptors were cultured in Dulbecco's Modified Eagle's Medium (DMEM) containing 10% Fetal Calf Serum (FCS), 100 U/ml penicillin, 0.1 mg/ml streptomycin, 0.25 μg/ml amphotericin B, 1% Minimum Essential Medium Eagle (MEM), non essential amino acid solution, […], 1% pyruvate (for the B2 cell line). Cells were kept at 37° C. in a humidified incubator in an atmosphere of 5% CO2/95% air and were passaged 1:4 three times a week. Cells were plated at 1.5-2.5×10^4 cell/well on standard 96-well microplates, measurements of cytosolic calcium ion concentration ([Ca^2+]i) were carried out 1-2 days after cell plating.
Measurements of [Ca^2+]i were carried out on CHO-B1 and CHO-B2 cells stably expressing human B1 and B2 receptors, respectively. Cells were grown in standard 96-well microplates and before the measurement were loaded with a fluorescent Ca^2+-sensitive dye, fluo-4/AM (2 μM): after removing the culture medium the dye was added to the cells (dissolved in assay buffer: 145 mM NaCl, 5 mM KCl, 2 mM MgCl2, 2 mM CaCl2, 10 mM HEPES, 20 mM D-glucose, 2 mM probenecid, 100 μl/well) and cells were incubated at 37° C. in a humidified incubator in an atmosphere of 5% CO2/95% air for 40-120 min. To stop dye loading cells were washed twice with assay buffer. After washing, various concentrations of the test compounds (diluted in extracellular medium from a DMSO stock solution, final DMSO concentration was <0.1%) or buffer were added to each well depending on the experimental setup. After incubation at 37° C. for 20-25 min. baseline and agonist-evoked changes of [Ca^2+]i were measured column by column with a plate reader fluorimeter (Fluoroskan Ascent, Labsystems). Excitation and detection of emission was carried out from the bottom of the plate. Filters used for Fluo-4: excitation filter—485 nm, emission filter—538 nm. The whole measurement process was performed at 37° C. and was controlled by custom software Inhibitory potency of the test compounds was assessed by measuring the reduction in the agonist-evoked [Ca^2+]i-elevation in the presence of different concentrations of the compounds. The agonists were LysDABK for CHO-B1, and bradykinin for CHO-B2 cells. Agonists were applied at an EC80 concentration, the EC80-values were derived from daily determined dose-response curves. Fluorescence data were expressed as ΔF/F (fluorescence change normalized to baseline). All treatments on a single plate were measured in multiple wells. Data from all wells with the same treatment were averaged and the average values were used for analysis. Inhibitory potency of a compound at a single concentration point was expressed as percent inhibition of the control agonist response. Sigmoidal concentration-inhibition curves were fitted to the data (derived from at least three independent experiments) and IC50-values were determined as the concentration that produces half of the maximal inhibition caused by the compound.

Structures can show the parent of a compound that is named as a salt.

`O=C(CNC(=O)c1ccc(S(=O)(=O)Nc2ccccc2Oc2ccc(Br)cc2)cc1)NCC1CCNCC1` [Example 3, 4-[2-(4-Bromo-phenoxy)-phenylsulfamoyl]-N-{[(piperidin-4-ylmethyl)-carbamoyl]-methyl}-benzamide trifluoroacetate]: the Ki in test [1] is < 20 nM. In test [2], the IC50 was < 20 nM.
Regarding `O=C(CNC(=O)c1ccc(S(=O)(=O)Nc2ccccc2Oc2ccccc2)cc1)N[C@H]1CC[C@H](CCN2CCCC2)CC1` [Example 50, trans-4-(2-Phenoxy-phenylsulfamoyl)-N-{[4-(2-pyrrolidin-1-yl-ethyl)-cyclohexyl-carbamoyl]-methyl}-benzamide], the Ki in test [1] is < 20 nM. For the same compound, the IC50 in test [2] is < 20 nM.
With `O=C(CNC(=O)c1ccc(S(=O)(=O)Nc2ccccc2Oc2ccc(Cl)cc2Cl)cc1)NCCCN1CCOCC1` [Example 27, 4-[2-(2,4-Dichloro-phenoxy)-phenylsulfamoyl]-N-[(3-morpholin-4-yl-propylcarbamoyl)-methyl]-benzamide], the Ki in test [1] is < 20 nM. Moreover, in test [2], the IC50 is < 20 nM.
Take `N=C(N)NCc1ccc(CNC(=O)CNC(=O)c2ccc(S(=O)(=O)Nc3ccccc3Oc3ccc(Cl)cc3Cl)cc2)cc1` [Example 39, 4-[2-(2,4-Dichloro-phenoxy)-phenylsulfamoyl]-N-[(4-guanidinomethyl-benzylcarbamoyl)-methyl]-benzamide hydrochloride]: the Ki in test [1] is < 20 nM. Besides, in test [2], the IC50 is < 20 nM.
Regarding `O=C(CNC(=O)c1ccc(S(=O)(=O)Nc2ccccc2Oc2ccccc2)cc1)NCCCN1CCC(N2CCCCC2)CC1` [Example 48, N-[(3-[1,4′]Bipiperidinyl-r-yl-propylcarbamoyl)-methyl]-4-(2-phenoxy-phenylsulfamoyl)-benzamide], the Ki in test [1] is < 20 nM. Moreover, the IC50 in test [2] is < 20 nM.
As to `O=C(CNC(=O)c1ccc(S(=O)(=O)Nc2ccccc2Oc2ccc(Cl)cc2Cl)cc1)NCCC1CCNCC1` [Example 22, 4-[2-(2,4-Dichloro-phenoxy)-phenylsulfamoyl]-N-[(2-piperidin-4-yl-ethylcarbamoyl)-methyl]-benzamide acetate], in test [1], the Ki is < 20 nM. Moreover, the IC50 in test [2] is < 20 nM.
For the compound `O=C(CNC(=O)c1ccc(S(=O)(=O)Nc2ccccc2Oc2ccc(Cl)cc2Cl)cc1)NCCN1CCOCC1` [Example 30, 4-[2-(2,4-Dichloro-phenoxy)-phenylsulfamoyl]-N-[(2-morpholin-4-yl-ethylcarbamoyl)-methyl]-benzamide], in test [1], the Ki is < 20 nM. Further, the IC50 in test [2] is < 20 nM.
Take `O=C(CNC(=O)c1ccc(S(=O)(=O)Nc2ccccc2Oc2ccc(Br)cc2Cl)cc1)NCC1CCNCC1` [Example 37, 4-[2-(4-Bromo-2-chloro-phenoxy)-phenylsulfamoyl]-N-{[(piperidin-4-ylmethyl)-carbamoyl]-methyl}-benzamide hydrochloride]: the Ki in test [1] is < 20 nM. In addition, the IC50 in test [2] was < 20 nM.
As to `O=C(CNC(=O)c1ccc(S(=O)(=O)Nc2cc(F)ccc2Oc2ccc(Br)cc2)cc1)NCC1CCNCC1` [Example 4, 4-[2-(4-Bromo-phenoxy)-5-fluoro-phenylsulfamoyl]-N-{[(piperidin-4-ylmethyl)-carbamoyl]-methyl}-benzamide trifluoroacetate], in test [1], the Ki is < 20 nM. Besides, the IC50 in test [2] is < 20 nM.
On to `CC1CCCCN1CCCNC(=O)CNC(=O)c1ccc(S(=O)(=O)Nc2ccccc2Oc2ccccc2)cc1` (stereo not drawn) [Example 56, N-{[3-(2-Methyl-piperidin-1-yl)-propylcarbamoyl]-methyl}-4-(2-phenoxy-phenylsulfamoyl)-benzamide], for which the Ki in test [1] was < 20 nM. For the same compound, the IC50 in test [2] is < 20 nM.
Consider `O=C(CNC(=O)c1ccc(S(=O)(=O)Nc2ccccc2C(=O)c2ccccc2)cc1)NCC1CCNCC1` [Example 18, 4-(2-Benzoyl-phenylsulfamoyl)-N-{[(piperidin-4-ylmethyl)-carbamoyl]-methyl}-benzamide hydrochloride], for which the Ki in test [1] is < 20 nM. For the same compound, the IC50 in test [2] was < 20 nM.
Regarding `O=C(NC(Cc1ccccc1)C(=O)NCC1CCNCC1)c1ccc(S(=O)(=O)Nc2ccccc2Oc2ccc(Cl)cc2Cl)cc1` (stereo not drawn) [Example 6, 4-[2-(2,4-Dichloro-phenoxy)-phenylsulfamoyl]-N-{2-phenyl-1-[(piperidin-4-ylmethyl)-carbamoyl]-ethyl}-benzamide hydrochloride], the Ki in test [1] was < 20 nM. Also, the IC50 in test [2] was < 20 nM.
As for `O=C(CNC(=O)c1ccc(S(=O)(=O)Nc2ccccc2Oc2ccc(Cl)cc2Cl)cc1)NCCN1CCCCC1` [Example 23, 4-[2-(2,4-Dichloro-phenoxy)-phenylsulfamoyl]-N-[(2-piperidin-1-yl-ethylcarbamoyl)-methyl]-benzamide], in test [1], the Ki was < 20 nM. Also, the IC50 in test [2] is < 20 nM.
Turning to `CC1CCCCN1CCCNC(=O)CNC(=O)c1ccc(S(=O)(=O)Nc2ccccc2Oc2ccc(Cl)cc2Cl)cc1` (stereo not drawn) [Example 28, 4-[2-(2,4-Dichloro-phenoxy)-phenylsulfamoyl]-N-{[3-(2-methyl-piperidin-1-yl)-propylcarbamoyl]-methyl}-benzamide], the Ki in test [1] is < 20 nM. Further, the IC50 in test [2] was < 20 nM.
Consider `O=C(CNC(=O)c1ccc(S(=O)(=O)Nc2ccccc2Nc2ccccc2)cc1)NCC1CCNCC1` [Example 103, 4-(2-Phenylamino-phenylsulfamoyl)-N-{[(piperidin-4-ylmethyl)-carbamoyl]-methyl}-benzamide hydrochloride], for which the Ki in test [1] is < 20 nM.
`CN(C)CC(C)(C)CNC(=O)CNC(=O)c1ccc(S(=O)(=O)Nc2ccccc2Oc2ccc(Cl)cc2Cl)cc1` [Example 35, 4-[2-(2,4-Dichloro-phenoxy)-phenylsulfamoyl]-N-[(3-dimethylamino-2,2-dimethyl-propylcarbamoyl)-methyl]-benzamide]: the Ki in test [1] was < 20 nM.
In the case of `CN(CCc1ccncc1)C(=O)CNC(=O)c1ccc(S(=O)(=O)Nc2ccccc2Oc2ccc(Cl)cc2Cl)cc1` [Example 43, 4-[2-(2,4-Dichloro-phenoxy)-phenylsulfamoyl]-N-{[methyl-(2-pyridin-4-yl-ethyl)-carbamoyl]-methyl}-benzamide], in test [1], the Ki was < 20 nM.
Consider `N#CCc1ccc(NC(=O)CNC(=O)c2ccc(S(=O)(=O)Nc3ccccc3Oc3ccccc3)cc2)cc1` [Example 73, N-[(4-Cyanomethyl-phenylcarbamoyl)-methyl]-4-(2-phenoxy-phenylsulfamoyl)-benzamide], for which the Ki in test [1] is < 20 nM.
As to `O=C(CNC(=O)c1ccc(S(=O)(=O)Nc2ccccc2Oc2ccc(Cl)cc2Cl)cc1)NCCCCC1CCNCC1` [Example 59, 4-[2-(2,4-Dichloro-phenoxy)-phenylsulfamoyl]-N-[(4-piperidin-4-yl-butylcarbamoyl)-methyl]-benzamide hydrochloride], the Ki in test [1] was < 20 nM.
